Test results taken from US7605272B2, “IGF-1R inhibitor” (Kyowa Hakko Kirin Co., Ltd., priority 2005, dated 2009).
Where two headings read alike, the source gives them in different places.

Tests used:
IGF-1R = biological target: T1, IGF-1R (Homo sapiens, UniProt P08069); assay: IGF-1R inhibitory activity (kinase reaction, time-resolved fluoroimmunoassay); format: biochemical; conditions: IGF-1R active recombinant enzyme, test compound 10 μmol/L
T1 construct: purchased Upstate Co. 14-465
Procedure, shortened: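 Compounds were tested at a single 10 μmol/L concentration. Each was incubated with recombinant IGF-1R (200 μg/L), 10 mmol/L ATP, MgCl2/MnCl2 and Na3VO4 (pH 7.5) on immobilized poly(Glu-Tyr) peptide for 30 min at 24° C. Eu-anti-phosphotyrosine time-resolved fluorescence (340/615 nm) gave relative activity against no-compound and no-enzyme wells, reported as % inhibition.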

NCI-H929 = assay: Cytostatic activity on human multiple myeloma cell line NCI-H929 (WST-1); format: cell-based; conditions: for inhibition at 1 µM: Homo sapiens, NCI-H929, 72 h, read-out: cytostatic rate (%) H929 (1 μmol/L)
Procedure, shortened: (§1)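 Cells pre-cultured 24 h at 37 °C, 5% CO2, then exposed 72 h to compound at final 1 or 10 μmol/L (0.1% DMSO). WST-1 added for 2 h, absorbance at 450 nm (ref 690 nm). Cytostatic rate = 100 minus relative growth, with DMSO control as 100% and blank as 0%.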

KMS-11 = assay: Cytostatic activity on human multiple myeloma cell line KMS-11 (WST-1); format: cell-based; conditions: for inhibition at 1 µM: Homo sapiens, KMS-11, 72 h, read-out: cytostatic rate (%) KMS-11 (1 μmol/L)
Procedure, shortened: as §1

[1] = NCI-H929 cells, test compound 1 μmol/L, WST-1
[2] = KMS-11 cells, test compound 1 μmol/L, WST-1

T1 sequence (P08069 959-1367 limits assumed): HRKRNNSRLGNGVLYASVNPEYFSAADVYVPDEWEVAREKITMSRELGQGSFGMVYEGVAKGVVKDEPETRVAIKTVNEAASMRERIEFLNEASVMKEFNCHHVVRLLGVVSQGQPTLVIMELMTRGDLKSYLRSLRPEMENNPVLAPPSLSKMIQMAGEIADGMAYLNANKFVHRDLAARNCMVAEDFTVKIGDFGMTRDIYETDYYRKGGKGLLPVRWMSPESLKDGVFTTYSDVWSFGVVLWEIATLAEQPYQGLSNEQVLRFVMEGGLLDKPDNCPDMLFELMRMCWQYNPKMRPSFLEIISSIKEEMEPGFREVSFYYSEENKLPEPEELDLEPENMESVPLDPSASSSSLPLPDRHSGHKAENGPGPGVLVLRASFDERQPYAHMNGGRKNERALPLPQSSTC

inhibition at 10 µM (IGF-1R) | inhibitory activity (%) at 10 μmol/L (IGF-1R) | SMILES | inhibition at 1 µM (NCI-H929; 1 μmol/L, 72 hours) | inhibition at 1 µM (KMS-11; 1 μmol/L, 72 hours) | inhibition at 1 µM (NCI-H929; [1]) | inhibition at 1 µM (KMS-11; [2]) | cytostatic rate (%) H929 (1 μmol/L) (NCI-H929; [1]) | cytostatic rate (%) KMS-11 (1 μmol/L) (KMS-11; [2])
97.1% |  | COCCCN1CCN(C(=O)c2ccc(/C=C/c3n[nH]c4ccccc34)c(N3C(=O)c4cccc(N)c4C3=O)c2)CC1 [Compound 309, (E)-4-amino-2-{2-[2-(1H-indazol-3-yl)vinyl]-5-[4-(3-methoxypropyl)piperazin-1-ylcarbonyl]phenyl}isoindole-1,3-dione] |  |  | 115% | 113% |  | 
104% |  | Cc1ccsc1C(=O)Nc1cc(CN2CCC(CCO)CC2)ccc1/C=C/c1n[nH]c2ccccc12 [Compound 311, (E)-N-{5-[4-(2-hydroxyethyl)piperidin-1-ylmethyl]-2-[2-(1H-indazol-3-yl)vinyl]phenyl}-3-methylthiophene-2-carboxamide] |  |  | 117% | 111% |  | 
 | 100.7% | CC(=O)CCN1CCN(Cc2ccc(/C=C/c3n[nH]c4ccccc34)c(NC(=O)c3sccc3C)c2)CC1 [Compound 313, (E)-{2-[2-(1H-indazol-3-yl)vinyl]-5-[4-(3-oxobutyl)piperazin-1-ylmethyl]phenyl}-3-methylthiophene-2-carboxamide] |  |  |  |  | 115.2% | 107.9%
106% |  | CN1CCN(C(=O)c2ccc(/C=C/c3n[nH]c4ccccc34)c(N3C(=O)c4cccc(N)c4C3=O)c2)CC1 [Compound 315, (E)-4-amino-2-{2-[2-(1H-indazol-3-yl)vinyl]-5-(4-methylpiperazin-1-ylcarbonyl)phenyl}isoindole-1,3-dione] |  |  | 113% | 106% |  | 
103% |  | Nc1cccc2c1C(=O)N(c1cc(C(=O)N3CCC(N4CCOCC4)CC3)ccc1/C=C/c1n[nH]c3ccccc13)C2=O [Compound 317, (E)-4-amino-2-{2-[2-(1H-indazol-3-yl)vinyl]-5-[4-(morpholin-4-yl)piperidin-1-ylcarbonyl]phenyl}isoindole-1,3-dione] |  |  | 114% | 105% |  | 
 | 100.4% | Cc1ccsc1C(=O)Nc1cc(CN2CCN(CCN3CCOCC3)CC2)ccc1/C=C/c1n[nH]c2ccccc12 [Compound 319] |  |  |  |  | 122.4% | 102.6%
 | 102.1% | CON(C)C(=O)c1ccc(/C=C/c2n[nH]c3ccccc23)c(NC(=O)c2sccc2C)c1 [Compound 320, (E)-{2-[2-(1H-indazol-3-yl)vinyl]-5-(N-methoxy N-methylcarbamoyl)phenyl}-3-methyl-2-carboxamide] |  |  |  |  | 122.8% | 112.1%
101% |  | COCCCN1CCN(Cc2ccc(/C=C/c3n[nH]c4ccccc34)c(N3Cc4c(N)cccc4C3=O)c2)CC1 [Compound 321, (E)-4-amino-2-{5-[4-(3-methoxypropyl)piperazin-1-ylmethyl]-2-[2-(1H-indazol-3-yl)vinyl]phenyl}-2,3-dihydroisoindole-1-one] |  |  | 122% |  |  | 102.3%
99.1% |  | Cc1ccsc1C(=O)Nc1cc(CN2CCC(CCC(C)(C)O)CC2)ccc1/C=C/c1n[nH]c2ccccc12 [Compound 322, (E)-N-{5-[4-(3-hydroxy-3-methylbutyl)piperidin-1-ylmethyl]-2-[2-(1H-indazol-3-yl)vinyl]phenyl}-3-methylthiophene-2-carboxamide] |  |  | 122% | 106% |  | 
 | 105.8% | COCCCN1CCN(Cc2ccc(/C=C/c3n[nH]c4ccccc34)c(N3Cc4c(N)cccc4C3=O)c2)CC1 [Compound 323, (E)-4-amino-2-{2-[2-(1H-indazol-3-yl)vinyl]-5-[4-(3-methoxypropyl)piperazin-1-ylmethyl]phenyl}-2,3-dihydroisoindol-1-one] |  |  |  |  | 107.6% | 73.8%
 | 100.2% | COC1CCN(C(=O)c2ccc(/C=C/c3n[nH]c4ccccc34)c(N3C(=O)c4cccc(N)c4C3=O)c2)CC1 [Compound 325] |  |  |  |  | 118.4% | 100.1%

Continued, molecule first:

SMILES | inhibition at 10 µM (IGF-1R) | inhibitory activity (%) at 10 μmol/L (IGF-1R) | inhibition at 1 µM (NCI-H929; 1 μmol/L, 72 hours) | inhibition at 1 µM (KMS-11; 1 μmol/L, 72 hours) | inhibition at 1 µM (NCI-H929; [1]) | inhibition at 1 µM (KMS-11; [2]) | cytostatic rate (%) H929 (1 μmol/L) (NCI-H929; [1]) | cytostatic rate (%) KMS-11 (1 μmol/L) (KMS-11; [2])
CC(=O)NC1CCN(C(=O)c2ccc(/C=C/c3n[nH]c4ccccc34)c(NC(=O)c3sccc3C)c2)CC1 [Compound 301, (E)-N-{5-[4-(acetylamino)piperidin-1-ylcarbonyl]-2-[2-(1H-indazol-3-yl)vinyl]phenyl}-3-methylthiophene-2-carboxamide] | 98.3% |  | 119% | 100% |  |  |  | 
Cc1ccsc1C(=O)Nc1cc(CN2CCN(C[C@H](O)CO)CC2)ccc1/C=C/c1n[nH]c2ccccc12 [Compound 302, (E)-(S)—N-{5-[4-(2,3-dihydroxypropyl)piperazin-1-ylmethyl]-2-[2-(1H-indazol-3-yl)vinyl]phenyl}-3-methylthiophene-2-carboxamide] | 101% |  | 115% | 99.4% |  |  |  | 
CC(=O)N1CCC(NC(=O)c2ccc(/C=C/c3n[nH]c4ccccc34)c(NC(=O)c3sccc3C)c2)CC1 [Compound 303, (E)-N-{5-[N-(1-acetylpiperidin-4-yl)carbamoyl]-2-[2-(1H-indazol-3-yl)vinyl]phenyl}-3-methylthiophene-2-carboxamide] | 100% |  | 115% | 106% |  |  |  | 
COCCCN1CCN(Cc2ccc(/C=C/c3n[nH]c4ccccc34)c(NC(=O)c3sccc3C)c2)CC1 [Compound 304, (E)-N-{2-[2-(1H-indazol-3-yl)vinyl]-5-[4-(3-methoxypropyl)piperazin-1-ylmethyl]phenyl}-3-methylthiophene-2-carboxamide] | 102% |  | 115% | 105% |  |  |  | 
CN(CCO)c1ccc(/C=C/c2n[nH]c3ccccc23)c(NC(=O)c2cccn2C)c1 [Compound 305, (E)-N-{5-[N-(2-hydroxyethyl)methylamino]-2-[2-(1H-indazol-3-yl)vinyl]phenyl}-1-methyl-1H-pyrrole-2-carboxamide] | 100% |  |  |  | 118% | 110% |  | 
Nc1cccc2c1C(=O)N(c1cc(CN3CCN(CCCO)CC3)ccc1/C=C/c1n[nH]c3ccccc13)C2=O [Compound 306, (E)-4-amino-2-{5-[4-(3-hydroxypropyl)piperazin-1-ylmethyl]-2-[2-(1H-indazol-3-yl)vinyl]phenyl}isoindole-1,3-dione] | 100% |  |  |  | 116% | 112% |  | 
Nc1cccc2c1C(=O)N(c1cc(CN3CCN(CCO)CC3)ccc1/C=C/c1n[nH]c3ccccc13)C2=O [Compound 307, (E)-4-amino-2-{5-[4-(2-hydroxyethyl)piperazin-1-ylmethyl]-2-[2-(1H-indazol-3-yl)vinyl]phenyl}isoindole-1,3-dione] | 100% |  |  |  | 114% | 110% |  | 
Cn1cccc1C(=O)Nc1cc(N(CCO)CCN2CCOCC2)ccc1/C=C/c1n[nH]c2ccccc12 [Compound 308, (E)-{5-[N-(2-hydroxyethyl)-2-(morpholin-4-yl)ethylamino]-2-[2-(1H-indazol-3-yl)vinyl]phenyl}-1-methyl-1H-pyrrole-2-carboxamide] |  | 99.1% |  |  |  |  | 118.3% | 128.1%
